The test addresses TRPV1 (Rattus norvegicus, UniProt O35433). The test can be described thus: capsaicin-induced 45Ca2+-uptake in primary rat embryonic DRG cultures. Format: cell-based. Further details: sensory neurons, expressing TRPV1 endogenously; endogenous in cells; host or cells: primary cultures of embryonic rat dorsal root ganglia (E14, E16). Here is the method:
Primary cultures were prepared from embryonic (E14) rat DRGs. Along with calmidazolium other polycyclic compounds were included in the vanilloid-induced ^45Ca^2+-transport assays.
Primary DRG cultures were prepared from E16 embryonic rats as described previously then plated in 15 cm Petri dishes for 4 h to remove the most adherent fibroblasts. For Ca^2+-uptake studies primary afferents neurons cultured in 96 well plates (3×10^3 cells/well), coated with poly-D lysine/collagen, which yielded both axons and dendrites bearing neurons due to neuronal growth factor supplementation in the culture medium [1]–[4]. The dendrites are large processes branching from the cell body that taper in diameter further from the cell body. The axons are a constant diameter and project over long distances from the cell body. Before the ion transport experiment, culture medium was removed and cells were washed three times. ^45Ca-uptake assays were carried out in “nominally zero Ca^2+” (i.e. 2×10^−5 M extracellular Ca^2+ ([Ca^2+]o) in 25 mM Tris-HCl buffered Hanks' balanced salt solution (pH 7.5), supplemented with 10 µM CaCl2 and 0.8 mM MgCl2medium (HCM) [1]–[4].
Vanilloid agonist inducible calcium transport was assayed in adherent cell lines ectopically expressing the C-terminally ε-tagged rat TRPV1 (3×10^4 cells/well) and primary cultures prepared from embryonic DRG, seeded in poly-D lysine/collagen coated 96 well plates. […] The previously established cell lines and standardized DRG cultures were extensively characterized for functional cell-based TRPV1 studies [1]–[4]. Immediately before the transport assay, cells were adapted to room temperature (20°C) for 5 min in HCM. ^45Ca^2+-uptake was performed for 10 min at 20°C in HCM using 0.1 µCi ^45Ca^2+ as radioactive tracer in a 100 µl final volume. To stop ^45Ca^2+-uptake, cells were rapidly changed back into 0.2 ml HCM, washed 4 additional times with 0.2 ml HCM, and then lysed in 80 µl/well RIPA buffer (50 mM Tris-HCl, pH 7.5, 150 mM NaCl, 1% Triton X-100, 0.5% deoxycholate, 0.1% SDS, 5 mM EDTA) for 30 min [1]–[4]. Aliquots of the solubilized cell extracts were mixed with 120 µl Microscint-40 and counted in a 96 well plate liquid scintillation counter (TopCount-NXT, Packard).

Values joined by “and” are separate entries in the source; they are usually repeats but may differ in a detail not shown here. Equal entries are not always repeated.

Chain of TRPV1 (O35433 whole entry): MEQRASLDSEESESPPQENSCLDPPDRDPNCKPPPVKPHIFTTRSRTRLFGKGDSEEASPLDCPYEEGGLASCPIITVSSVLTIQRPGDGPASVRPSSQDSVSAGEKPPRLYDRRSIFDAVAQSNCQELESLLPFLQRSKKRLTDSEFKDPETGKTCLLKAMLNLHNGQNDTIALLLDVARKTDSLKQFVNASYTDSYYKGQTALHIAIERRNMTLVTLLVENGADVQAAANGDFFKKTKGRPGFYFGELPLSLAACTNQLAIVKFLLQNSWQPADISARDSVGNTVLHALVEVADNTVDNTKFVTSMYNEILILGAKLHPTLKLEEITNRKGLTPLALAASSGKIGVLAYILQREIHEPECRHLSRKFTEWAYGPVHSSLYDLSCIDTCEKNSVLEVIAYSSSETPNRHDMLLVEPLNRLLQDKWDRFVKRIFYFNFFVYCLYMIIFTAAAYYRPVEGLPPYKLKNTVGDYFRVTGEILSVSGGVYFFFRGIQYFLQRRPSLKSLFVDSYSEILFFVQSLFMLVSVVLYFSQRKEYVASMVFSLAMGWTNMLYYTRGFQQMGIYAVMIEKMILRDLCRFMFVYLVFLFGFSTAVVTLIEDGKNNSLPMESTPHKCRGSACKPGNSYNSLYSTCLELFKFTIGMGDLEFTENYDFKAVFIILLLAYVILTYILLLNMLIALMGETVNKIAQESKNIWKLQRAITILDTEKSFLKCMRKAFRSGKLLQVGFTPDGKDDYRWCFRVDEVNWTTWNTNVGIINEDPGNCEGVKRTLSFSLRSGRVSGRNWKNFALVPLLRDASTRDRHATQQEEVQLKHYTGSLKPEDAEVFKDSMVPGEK

Take `Clc1ccc(C(c2ccc(Cl)cc2)n2cc[n+](CC(OCc3ccc(Cl)cc3Cl)c3ccc(Cl)cc3Cl)c2)cc1` (centres unmarked) [calmidazolium]: where the note is “DRG cultures vs TRPV1-NIH3T3 cells / other compounds (comparator unclear)”, the “fold higher potency in DRG cultures” value is listed as ~3 fold. The 50% inhibitory concentration (IC50) (rat embryonic DRG sensory neuron cultures, 2 µM capsaicin, read-out: IC50, inhibition of capsaicin-induced Ca2+-uptake) was 600 nM and ~600 nM.

(Values after paper PMC1890308, “Anti-calmodulins and Tricyclic Adjuvants in Pain Therapy Block the TRPV1 Channel” (PLoS ONE, 2007).)
